Data set [1] is described as follows: Volatility test of the active ingredient. To be noted: 200 mL deionized water, 92 mg active ingredient, stirred open at 300 rpm, over 4 days, FIG. 6. The class given is physicochemical.
Experimental: The procedure involved the use of three solutions: • Solution A: formulation of the following patent suspended in 200 mL of deionized water; • Solution B: pure dicamba active ingredient, dissolved in 200 mL of deionized water; • Solution C: 200 mL of deionized water.
All the previous solutions were stirred without lids, caps or parafilm that would hinder the evaporation. The characterization took place by sampling the solutions every 24 hours and analysing them with a spectrophotometer. The withdrawn amount was replenished with deionized water.
Some specifications: • the clay suspended in solution A has an active ingredient content by weight of approximately 92 mg; • in order to make a comparison, and therefore to evaluate whether the formulation actually makes the dicamba less volatile, the amount by weight of the active ingredient inserted in solution B is identical to that adsorbed on the clay, that is 92 mg; • the weighing of the solutions, to evaluate the amount of evaporated substance, also includes the contribution of water. […]
The conditions of data set [2]: cited from earlier work.
For data set [3] the following is noted: literature; cited from earlier work.
For data set [4] the following is noted: dicamba active ingredient; cited from earlier work.

The structures appear in SMILES notation. Converted amounts (≈) assume the structure as drawn. Like-named read-outs stand apart in the source and are kept apart here.

For `COc1c(Cl)ccc(Cl)c1C(=O)O` [dicamba, 3,6-dichloro-2-methoxybenzoic acid], in data set [1], the “herbicide loss by volatilization (in words)” value is “initial rapid volatilization and to a subsequent slow and progressive loss in mass”. Besides, the solubility in water in data set [2] (pH approximately 2 (no pH adjustment)) was approximately 8 mg/mL (≈ 36.2 mM); in data set [2] (pH values higher than 4.1), more than 250 mg/mL. Also, in data set [3], the “half-life time, most frequently reported values” is listed as “lower than 20 days”. Besides, the vapour pressure in data set [4] is listed as 2.6·10^−8 atm.
